Laboratory results published in patent US11033577B2, “Polymer conjugate of hexa-coordinated platinum complex” (priority 2015, dated 2021).

Tests used:
[1] = test system: Human stomach cancer 4-1ST; assay: Antitumor Test 2, human stomach cancer 4-1ST transplanted mouse; assay type: in vivo, BALB/cA-nu/nu mouse; details: caudal vein
Excerpt: Human stomach cancer 4-1ST was subcultured subcutaneously in a BALB/cA-nu/nu mouse (hereinafter, nude mouse). Human stomach cancer 4-1ST was obtained from the Central Institute for Experimental Animals.
(§1) Human stomach cancer 4-1ST was collected subcutaneously from a nude mouse and was cut into blocks each measuring about 3 mm on each side. The tumor blocks thus obtained were transplanted subcutaneously on the dorsal side of nude mice using a trocar. On the 17th day after transplantation, where the average tumor volume had reached about 100 to 200 mm^3, various drugs were administered through the caudal vein. The use and dose (in terms of drug) of the various administered drugs are as follows. In regard to the Example 11 compound, the compound was dissolved in a 5% glucose injectable solution, and the solution was administered once at a dose of 15 mg/kg or 7.5 mg/kg. In regard to the Example 12 compound, the compound was dissolved in a 5% glucose injectable solution, and the solution was administered once at a dose of 30 mg/kg or 15 mg/kg. As a control drug, l-OHP was administered once at a dose of 18 mg/kg, and cisplatin was administered once at a dose of 10 mg/kg. Regarding the amounts of administration of l-OHP and cisplatin and the high amounts of administration of the various Example compounds, the maximum tolerable doses (MTD doses) were employed for all of the compounds. After the administration, the major axis (L) and the minor axis (W) of the tumor were measured over time using calipers, and the tumor volume (L×W×W×0.5) was calculated. The test was performed by employing four animals per group for all of a non-administered group as well as various drug-administered groups. During the period from the initiation of administration to the 21st day after administration, the relative tumor volume (T/C (%)) of each drug-administered group based on the relative tumor volume of a non-drug-administered group as 100 was calculated by the following formula as an index for the antitumor effect. T/C(%)=Relative tumor volume of administered group/relative tumor volume of non-administered group×100 Formula: […]

[2] = Body weight of mice in Antitumor Test 2; assay type: in vivo; details: 18 mg/kg once, caudal vein
Experimental: as §1
(§2) After the administration, the body weights of the mice were measured over time. During the period from the initiation of administration to the 21st day after administration, the changes in the relative body weight based on the body weight on the day of initiation of administration as 1 are presented in Table 5.

[3] = Body weight of mice in Antitumor Test 3; assay type: in vivo; details: caudal vein
Experimental: as §1, with “20th” for “17th”, “7” for “11”, “16” for “12”, “18 mg/kg or 9” for “18”
as §2, with “7.” for “5.”

## N.N.[Cl][Pt][Cl] [Cisplatin, cisplatin]
[1]; 10 mg/kg once, day 0
  T/C (%) in various numbers of days after administration: 100%
[1]; 10 mg/kg once, day 4
  T/C (%) in various numbers of days after administration: 77%
[1]; 10 mg/kg once, day 7
  T/C (%) in various numbers of days after administration: 43%
[1]; 10 mg/kg once, day 11
  T/C (%) in various numbers of days after administration: 32%
[1]; 10 mg/kg once, day 14
  T/C (%) in various numbers of days after administration: 36%
[1]; 10 mg/kg once, day 18
  T/C (%) in various numbers of days after administration: 37%
[1]; 10 mg/kg once, day 21
  T/C (%) in various numbers of days after administration: 42%

## O=C1[O][Pt]2([NH][C@@H]3CCCC[C@H]3[NH]2)[O]C1=O [l-OHP, oxaliplatin]
[1]; 18 mg/kg once, day 0
  T/C (%) in various numbers of days after administration: 100%
[1]; 18 mg/kg once, day 4
  T/C (%) in various numbers of days after administration: 84%
[1]; 18 mg/kg once, day 7
  T/C (%) in various numbers of days after administration: 52%
[1]; 18 mg/kg once, day 11
  T/C (%) in various numbers of days after administration: 50%
[1]; 18 mg/kg once, day 14
  T/C (%) in various numbers of days after administration: 50%
[1]; 18 mg/kg once, day 18
  T/C (%) in various numbers of days after administration: 60%
[1]; 18 mg/kg once, day 21
  T/C (%) in various numbers of days after administration: 57%
[2]; day 0
  Relative body weight in numbers of days after administration: 1.00
[2]; day 4
  Relative body weight in numbers of days after administration: 0.78
[2]; day 7
  Relative body weight in numbers of days after administration: 0.83
[2]; day 11
  Relative body weight in numbers of days after administration: 0.93
[2]; day 14
  Relative body weight in numbers of days after administration: 1.03
[2]; day 18
  Relative body weight in numbers of days after administration: 1.09
[2]; day 21
  Relative body weight in numbers of days after administration: 1.05
[3]; 9 mg/kg once, day 0
  Relative body weight in numbers of days after administration: 1.00
[3]; 9 mg/kg once, day 4
  Relative body weight in numbers of days after administration: 0.96
[3]; 9 mg/kg once, day 7
  Relative body weight in numbers of days after administration: 1.00
[3]; 9 mg/kg once, day 11
  Relative body weight in numbers of days after administration: 1.01
[3]; 9 mg/kg once, day 14
  Relative body weight in numbers of days after administration: 1.02
[3]; 9 mg/kg once, day 18
  Relative body weight in numbers of days after administration: 1.02
[3]; 9 mg/kg once, day 21
  Relative body weight in numbers of days after administration: 1.02
[3]; 18 mg/kg once, day 0
  Relative body weight in numbers of days after administration: 1.00
[3]; 18 mg/kg once, day 4
  Relative body weight in numbers of days after administration: 0.85
[3]; 18 mg/kg once, day 7
  Relative body weight in numbers of days after administration: 0.89
[3]; 18 mg/kg once, day 11
  Relative body weight in numbers of days after administration: 0.98
[3]; 18 mg/kg once, day 14
  Relative body weight in numbers of days after administration: 1.01
[3]; 18 mg/kg once, day 18
  Relative body weight in numbers of days after administration: 1.02
[3]; 18 mg/kg once, day 21
  Relative body weight in numbers of days after administration: 1.04
